The values that follow are results of earlier work, collected in patent US20100104634A1, “PHARMACEUTICAL COMPOSITIONS OF ENTACAPONE” (priority 2006, published 2010).

The conditions of the data set: low solubility, low dissolution rate, low bioavailability.

With `CCN(CC)C(=O)/C(C#N)=C/c1cc(O)c(O)c([N+](=O)[O-])c1` [Entacapone, (E)-2-cyano-3-(3,4-dihydroxy-5-nitrophenyl)-N,N-diethyl-2-propenamide], the “Biopharmaceutics Classification system (BCS) class” value was “class IV”.
